Experimental findings from patent EP1209147A1, “CARBOXYLIC ACID DERIVATIVES AND ADHESION MOLECULE INHIBITORS CONTAINING THE SAME AS THE ACTIVE INGREDIENT” (TORAY INDUSTRIES, INC., priority 1999, dated 2001) are described below.

Experiment [1] concerns Mouse Asthma Model. The experiment in a line: Mouse asthma model (OVA, intranasal induction). It counts as in vivo, BLAB/c mouse. The note with it: 750 µg per time intranasally; BALF on DAY-28; Fig. 2. Here is the method: Equivolume of 10% KAI(SO4)2·12H2O (WAKO) solution and ovalbumin (hereinafter "OVA") solution (500 µg/ml) were mixed, and 10N NaOH was slowly added to neutralize the solution to obtain Al(OH)3 gel (OVA 500 µg/ml) on which OVA was adsorbed. The obtained product was intraperitoneally administered to each BLAB/c mouse (female, 7 weeks old, JAPAN CHARLES RIVER) at a dose of 200 µl (100 µg) per mouse on DAY-0 and DAY-14. Thereafter, on DAY-14, 50 µl of 2 mg/ml solution of OVA in physiological saline was intranasally administered, and on DAY-25, 26 and 27, 50 µl of 1 mg/ml solution of OVA in physiologically saline was intranasally administered to induce inflammation. Compound No. 140 used as the test compound was dissolved in physiological saline and the solution was intranasally administered at 30 minutes before induction with OVA, at 8 hours after induction, and on DAY-25, 26 and 27, twice a day, at a dose of 750 µg per time. To the background group and control group, physiological saline was intranasally administered.
On DAY-28, bronchus of each mouse was incised and the bronchus and alveoli were washed (BAL) 4 times with 0.7 ml of physiological saline. […] After staining the specimen by May-Giemsa staining method, the leukocytes were grouped and counted under microscope to determine the number of eosinophils. […]

Experiment [2] addresses VLA-4-IgG chimeric protein (Homo sapiens, UniProt P05556+P13612). The experiment in a line: Inhibition of binding between CS-1 peptide and VLA-4-IgG chimeric protein. The note with it: binding of VLA-4-IgG chimeric protein to immobilized CS-1 peptide; compound preincubated 20 minutes; read-out: Inhibition Activity(IC50 : nM). How it is done: The adhesion-inhibition activity of the compound of the present invention against VLA-4 may be examined by using an adhesion assay system in which the adhesion between VLA-4-expressing cells such as Ramos cells and Jurkat cells, and fibronectin or a fragment thereof, e.g., a peptide containing CS-1 sequence (Gly Pro Glu Ile Leu Asp Val Pro Ser Thr) (hereinafter referred to as "CS-1 peptide") immobilized on an immunoplate is measured. Alternatively, a binding assay system in which the binding of the VLA-4 protein to the fibronectin or a fragment thereof such as CS-1 peptide immobilized on an immunoplate is measured may be employed. In the present invention, the inhibition assay of the compound is preferably measured by a binding assay system which measures the binding between a chimeric protein of VLA-4 and immunoglobulin (VLA-4-IgG chimeric protein) and CS-1 peptide (Japanese patent application No. H9-234544), although the method of measuring the inhibition activity is not restricted to this method. The term "VLA-4-IgG chimeric protein" herein means the heterodimer composite molecule in which a chimeric protein between α4 of VLA-4 and immunoglobulin (hereinafter referred to as "VLAα4·IgG chimeric protein), and a chimeric protein between β1 of VLA-4 and immunoglobulin (hereinafter referred to as "VLAβ1·IgG chimeric protein) are associated. As the immunoglobulin, although heavy chain or light chain of IgG, IgM or the like may be employed, in the present invention, IgG1 heavy chain is used. When testing the inhibition activity of the compound, it is preferred to preliminarily mix the VLA-4-IgG chimeric protein and the test compound.
Effects of Compounds for Inhibition of Binding Between CS-1 Peptide and VLA-4-IgG
A conjugate between a peptide (Gys Leu His Gly Pro Glu Ile Leu Asp Val Pro Ser Thr) containing CS-1 sequence and rabbit IgG (Sigma) was prepared by the reported method (Humphries, M.J. et al. J. Biol.Chem., 262, 6886-6892 (1987)). The obtained conjugate was diluted with phosphate buffer (hereinafter referred to as "PBS(-)", NISSUI) and the resulting solution was placed in wells of a 96-well immunoplate (NUNC) in an amount of 100 µl/well, followed by leaving the solution to stand at 4°C for 16 hours to immobilize the conjugate.
Then each well was washed twice with PBS(-), and a PBS solution containing 1% BSA heat-treated at 80°C for 10 minutes was placed in each well in an amount of 300 µl/well. The immunoplate was left to stand at 4°C for 3 hours, and then the solution in each well was removed by aspiration.
After preliminarily allowing each compound to react with VLA-4-IgG chimeric protein (100 µl) at room temperature for 20 minutes, the resulting solution was allowed to react with CS-1 peptide in each well at 30°C for 3 hours. Thereafter, non-bound VLA-4-IgG chimeric protein was removed by aspiration and each well was washed twice with 0.1% BSA-containing TBS buffer (150 mM NaCl,25 mM Tris-HCI, 1 mM MnCl2 pH 7.4). To the bound VLA-4-IgG chimeric protein, biotin-labeled anti-human IgG antibody (Vector) as an primary antibody was added, and then avidin-labeled horse radish peroxidase (Sigma) as a secondary antibody was added, and the reaction was allowed to occur. After the reaction, o-phenylenediamine as a substrate was added to color the solution, and the absorbance at 490 nm was measured. From the absorbance, the binding-inhibition activity of each test compound was determined.

Molecules are shown by their SMILES.

VLA-4-IgG chimeric protein, sequence (P13612 with tags, fused parts or gaps limits assumed): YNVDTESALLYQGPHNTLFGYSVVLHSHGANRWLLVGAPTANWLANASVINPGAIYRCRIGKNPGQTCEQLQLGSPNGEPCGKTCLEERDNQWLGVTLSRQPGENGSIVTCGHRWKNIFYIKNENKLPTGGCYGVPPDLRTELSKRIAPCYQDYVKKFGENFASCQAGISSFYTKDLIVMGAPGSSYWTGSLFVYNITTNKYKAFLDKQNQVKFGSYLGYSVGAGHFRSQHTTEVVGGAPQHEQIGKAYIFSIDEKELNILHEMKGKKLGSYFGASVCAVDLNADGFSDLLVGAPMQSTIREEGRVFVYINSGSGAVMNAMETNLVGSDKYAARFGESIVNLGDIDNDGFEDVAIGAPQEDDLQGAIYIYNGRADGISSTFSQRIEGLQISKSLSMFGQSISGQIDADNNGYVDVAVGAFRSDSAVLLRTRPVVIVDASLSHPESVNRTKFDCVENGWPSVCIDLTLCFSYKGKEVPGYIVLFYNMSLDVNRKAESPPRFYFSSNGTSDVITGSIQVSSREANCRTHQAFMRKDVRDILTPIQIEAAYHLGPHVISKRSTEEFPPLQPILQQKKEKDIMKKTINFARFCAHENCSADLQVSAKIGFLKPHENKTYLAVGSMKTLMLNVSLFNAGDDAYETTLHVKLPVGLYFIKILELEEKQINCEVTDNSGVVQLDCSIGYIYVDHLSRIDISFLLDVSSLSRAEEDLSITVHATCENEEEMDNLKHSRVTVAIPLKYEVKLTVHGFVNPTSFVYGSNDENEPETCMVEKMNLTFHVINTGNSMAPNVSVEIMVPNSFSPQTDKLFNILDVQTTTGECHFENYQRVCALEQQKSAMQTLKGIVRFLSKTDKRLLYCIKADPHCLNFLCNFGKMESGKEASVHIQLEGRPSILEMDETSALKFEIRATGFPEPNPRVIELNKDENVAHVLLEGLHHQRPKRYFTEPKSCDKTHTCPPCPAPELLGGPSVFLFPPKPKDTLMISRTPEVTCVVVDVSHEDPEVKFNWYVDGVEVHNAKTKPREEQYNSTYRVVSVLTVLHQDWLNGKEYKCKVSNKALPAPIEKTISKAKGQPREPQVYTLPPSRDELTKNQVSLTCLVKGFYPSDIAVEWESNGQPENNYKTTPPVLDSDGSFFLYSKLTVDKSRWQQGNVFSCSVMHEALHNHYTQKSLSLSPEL
VLA-4-IgG chimeric protein, sequence (P05556 with tags, fused parts or gaps limits assumed): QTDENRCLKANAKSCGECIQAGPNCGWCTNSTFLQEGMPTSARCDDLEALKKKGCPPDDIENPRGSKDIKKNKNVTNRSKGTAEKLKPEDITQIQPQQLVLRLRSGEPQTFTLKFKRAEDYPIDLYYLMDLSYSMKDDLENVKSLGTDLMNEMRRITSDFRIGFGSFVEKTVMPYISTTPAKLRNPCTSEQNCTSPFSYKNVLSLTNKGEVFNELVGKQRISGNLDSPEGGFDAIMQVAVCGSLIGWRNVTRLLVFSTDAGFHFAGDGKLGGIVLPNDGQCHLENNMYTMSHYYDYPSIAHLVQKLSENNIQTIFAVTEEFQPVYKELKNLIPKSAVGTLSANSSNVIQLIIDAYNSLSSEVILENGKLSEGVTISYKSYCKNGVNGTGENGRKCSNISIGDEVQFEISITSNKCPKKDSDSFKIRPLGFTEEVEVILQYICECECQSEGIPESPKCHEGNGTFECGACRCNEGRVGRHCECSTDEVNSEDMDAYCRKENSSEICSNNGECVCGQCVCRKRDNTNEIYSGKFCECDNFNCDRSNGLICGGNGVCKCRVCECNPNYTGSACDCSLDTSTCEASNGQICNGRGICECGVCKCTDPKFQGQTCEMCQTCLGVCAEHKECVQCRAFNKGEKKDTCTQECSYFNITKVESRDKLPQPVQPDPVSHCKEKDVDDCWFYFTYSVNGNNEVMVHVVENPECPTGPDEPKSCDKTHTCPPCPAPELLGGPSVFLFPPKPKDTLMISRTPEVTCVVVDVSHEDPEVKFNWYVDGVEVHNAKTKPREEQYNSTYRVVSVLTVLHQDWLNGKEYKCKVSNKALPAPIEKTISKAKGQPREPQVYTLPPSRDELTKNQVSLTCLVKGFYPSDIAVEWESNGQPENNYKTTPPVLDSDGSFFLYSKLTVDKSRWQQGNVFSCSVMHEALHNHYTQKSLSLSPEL

On to `CC(C)(C)CC(=O)N[C@@H](CSSC[C@H](NC(=O)CC(C)(C)C)C(=O)O)C(=O)O` [Example 140, 3-((2(R)-carboxy-2(R)-(3,3-dimethylbutanoylamino)ethyl)disulfanyl)-2(R)-(3,3-dimethylbutanoylamino)propionic acid], for which the “accumulation of leukocytes, especially eosinophils, in the lung” value in experiment [1] is “inhibits”. In experiment [2], the IC50 (usually the concentration that gives 50% inhibition) was 1800 nM.
